In patent US20070128217A1 (priority 2003, published 2007):

Legend:
[1] = system: antibodies in sera from SARS patients (sera 1a, 1b, 2, 6, 37, 62, London, SARS-yellow, SARS-green); type: binding, human; set-up: Binding of serum 6 to linear peptides of protein X1 of SARS-CoV Urbani / Binding of serum 37 to linear peptides of protein X1 of SARS-CoV Urbani / Binding of serum 6 to looped/cyclic peptide (PEPSCAN-ELISA) / Binding of serum 37 to looped/cyclic peptide (PEPSCAN-ELISA) / Binding of serum 37 to looped/cyclic peptides of protein X1 of SARS-CoV Urbani / Binding of serum 6 to linear peptides of protein X2 / Binding of serum 37 to linear peptides of protein X2 / Binding of serum 37 to looped/cyclic peptides of protein X2 of SARS-CoV Urbani / Binding of serum 6 to linear peptides of protein M of SARS-CoV Urbani / Binding of serum 37 to linear peptides of protein M of SARS-CoV Urbani / Binding of serum 6 to looped/cyclic peptides of protein M of SARS-CoV Urbani / Binding of serum 37 to looped/cyclic peptides of protein M of SARS-CoV Urbani / Binding of serum 6 to linear peptides of protein X3 of SARS-CoV Urbani / Binding of serum 37 to linear peptides of protein X3 of SARS-CoV Urbani / Binding of serum 37 to looped/cyclic peptides of protein X3 of SARS-CoV Urbani / Binding of serum 6 to linear peptides of protein X4 of SARS-CoV Urbani / Binding of serum 37 to linear peptides of protein X4 of SARS-CoV Urbani / Binding of serum 37 to looped/cyclic peptides of protein X4 of SARS-CoV Urbani / Binding of serum 6 to linear peptides of protein X5 of SARS-CoV Urbani / Binding of serum 37 to linear peptides of protein X5 of SARS-CoV Urbani / Binding of serum 37 to looped/cyclic peptides of protein X5 of SARS-CoV Urbani / Binding of serum 6 to linear peptides of protein N of SARS-CoV Urbani / Binding of serum 37 to linear peptides of protein N of SARS-CoV Urbani / Binding of serum 6 to linear peptide (PEPSCAN-ELISA) / Binding of serum 1a to looped/cyclic peptides of protein N of SARS-CoV Urbani / Binding of serum 1b to looped/cyclic peptides of protein N of SARS-CoV Urbani / Binding of serum 2 to looped/cyclic peptides of protein N of SARS-CoV Urbani / Binding of serum 6 to looped/cyclic peptides of protein N of SARS-CoV Urbani / Binding of serum 37 to looped/cyclic peptides of protein N of SARS-CoV Urbani / Binding of serum 62 to looped/cyclic peptides of protein N of SARS-CoV Urbani / Binding of serum London to looped/cyclic peptides of protein N of SARS-CoV Urbani / Binding of serum SARS-green to looped/cyclic peptides of protein N of SARS-CoV Urbani: unit not given here
[2] = system: control sera (pooled serum of ten healthy LUMC hospital workers; commercial negative donor pooled serum from the Dutch bloodbank); type: binding, human; set-up: Binding of Control serum LUMC to linear peptides / Binding of Control serum Blood-bank to linear peptides / Binding of Control serum LUMC to looped peptides / Binding of Control Serum Blood-Bank to Looped peptides / Binding of Control serum LUMC to linear peptides of the protein M of SARS-CoV Urbani / Binding of Control serum Blood-bank to linear peptides of the protein M of SARS-CoV Urbani / Binding of Control serum LUMC to looped peptides of the protein M of SARS-CoV Urbani / Binding of Control Serum Blood-Bank to Looped peptides of the protein M of SARS-CoV Urbani: unit not given here
[3] = system: rabbit serum obtained by immunizing a rabbit with the SARS-CoV strain Frankfurt 1; type: binding; set-up: Binding of a rabbit serum to linear peptides / Binding of a rabbit serum to looped peptides / Rabbit serum linear peptides / Rabbit serum looped peptides / Binding of a rabbit serum to linear peptides of protein N of SARS-CoV Urbani (Rabbit serum linear peptides) / Binding of a rabbit serum to looped/cyclic peptides of protein N of SARS-CoV Urbani (Rabbit serum looped peptides): unit not given here

CIVGLMWLSYFVASF
0.6: Binding of serum 37 to looped/cyclic peptides of protein M of SARS-CoV Urbani [1] | Binding of Control Serum Blood-Bank to Looped peptides of the protein M of SARS-CoV Urbani [2]
0.7: Binding of serum 1a to linear peptides of protein M of SARS-CoV Urbani [1] | Binding of Control serum LUMC to looped peptides of the protein M of SARS-CoV Urbani [2]
0.5: Binding of serum 1a to looped/cyclic peptides of protein M of SARS-CoV Urbani [1] | Binding of serum 1b to linear peptides of protein M of SARS-CoV Urbani [1] | Binding of serum SARS-yellow to looped/cyclic peptides of protein M of SARS-CoV Urbani [1] | Binding of Control serum LUMC to linear peptides of the protein M of SARS-CoV Urbani [2]
0.1: Binding of serum SARS-yellow to linear peptides of protein M of SARS-CoV Urbani [1] | Rabbit serum linear peptides [3]
0.2: Binding of serum 1b to looped/cyclic peptides of protein M of SARS-CoV Urbani [1] | Binding of serum London to looped/cyclic peptides of protein M of SARS-CoV Urbani [1]
0.4: Binding of serum 2 to looped/cyclic peptides of protein M of SARS-CoV Urbani [1] | Binding of serum 6 to looped/cyclic peptides of protein M of SARS-CoV Urbani [1] | Binding of serum 37 to linear peptides of protein M of SARS-CoV Urbani [1] | Binding of serum 62 to linear peptides of protein M of SARS-CoV Urbani [1] | Binding of serum 62 to looped/cyclic peptides of protein M of SARS-CoV Urbani [1] | Binding of Control serum Blood-bank to linear peptides of the protein M of SARS-CoV Urbani [2]
0.0: Binding of serum SARS-green to looped/cyclic peptides of protein M of SARS-CoV Urbani [1]
0.3: Binding of serum 2 to linear peptides of protein M of SARS-CoV Urbani [1] | Binding of serum 6 to linear peptides of protein M of SARS-CoV Urbani [1] | Binding of serum London to linear peptides of protein M of SARS-CoV Urbani [1] | Binding of serum SARS-green to linear peptides of protein M of SARS-CoV Urbani [1] | Rabbit serum looped peptides [3]

CKSKNPLLYDANYFV
0.5: Binding of serum 1b to linear peptides of protein X1 of SARS-CoV Urbani [1] | Binding of serum 2 to linear peptides of protein X1 of SARS-CoV Urbani [1] | Binding of serum 2 to looped/cyclic peptide (PEPSCAN-ELISA) [1] | Binding of serum 62 to linear peptides of protein X1 of SARS-CoV Urbani [1] | Binding of serum SARS-yellow to looped/cyclic peptide (PEPSCAN-ELISA) [1] | Binding of Control serum Blood-bank to linear peptides [2]
0.1: Binding of a rabbit serum to linear peptides [3]
0.2: Binding of serum London to looped/cyclic peptide (PEPSCAN-ELISA) [1] | Binding of serum SARS-green to linear peptides of protein X1 of SARS-CoV Urbani [1] | Binding of serum SARS-yellow to linear peptides of protein X1 of SARS-CoV Urbani [1]
0.7: Binding of serum 37 to linear peptides of protein X1 of SARS-CoV Urbani [1]
0.8: Binding of serum 1a to linear peptides of protein X1 of SARS-CoV Urbani [1] | Binding of serum 1a to looped/cyclic peptide (PEPSCAN-ELISA) [1] | Binding of serum 37 to looped/cyclic peptide (PEPSCAN-ELISA) [1] | Binding of serum 62 to looped/cyclic peptide (PEPSCAN-ELISA) [1] | Binding of Control serum LUMC to linear peptides [2] | Binding of Control serum LUMC to looped peptides [2]
0.4: Binding of serum 6 to looped/cyclic peptide (PEPSCAN-ELISA) [1]
0.3: Binding of serum London to linear peptides of protein X1 of SARS-CoV Urbani [1] | Binding of serum SARS-green to looped/cyclic peptide (PEPSCAN-ELISA) [1]
0.6: Binding of serum 1b to looped/cyclic peptide (PEPSCAN-ELISA) [1] | Binding of serum 6 to linear peptides of protein X1 of SARS-CoV Urbani [1] | Binding of Control Serum Blood-Bank to Looped peptides [2] | Binding of a rabbit serum to looped peptides [3]

CKYTQSTALQELLIQ
0.4: Binding of serum 6 to linear peptides of protein X2 [1] | Binding of serum 6 to looped/cyclic peptides of protein X2 of SARS-CoV Urbani [1] | Binding of serum 62 to looped/cyclic peptides of protein X2 of SARS-CoV Urbani [1] | Binding of serum SARS-green to looped/cyclic peptides of protein X2 of SARS-CoV Urbani [1] | Binding of Control Serum Blood-Bank to Looped peptides [2]
0.6: Binding of serum 1a to looped/cyclic peptides of protein X2 of SARS-CoV Urbani [1] | Binding of serum 1b to looped/cyclic peptides of protein X2 of SARS-CoV Urbani [1] | Binding of serum SARS-yellow to linear peptides of protein X2 [1] | Binding of Control serum Blood-bank to linear peptides [2] | Binding of Control serum LUMC to looped peptides [2]
0.2: Binding of a rabbit serum to linear peptides [3] | Binding of a rabbit serum to looped peptides [3]
0.7: Binding of serum 1a to linear peptides of protein X2 [1] | Binding of serum 37 to linear peptides of protein X2 [1] | Binding of serum 62 to linear peptides of protein X2 [1] | Binding of serum SARS-green to linear peptides of protein X2 [1]
0.5: Binding of serum 1b to linear peptides of protein X2 [1] | Binding of serum 2 to linear peptides of protein X2 [1] | Binding of serum 2 to looped/cyclic peptides of protein X2 of SARS-CoV Urbani [1] | Binding of serum London to linear peptides of protein X2 [1] | Binding of Control serum LUMC to linear peptides [2]
0.3: Binding of serum 37 to looped/cyclic peptides of protein X2 of SARS-CoV Urbani [1] | Binding of serum London to looped/cyclic peptides of protein X2 of SARS-CoV Urbani [1] | Binding of serum SARS-yellow to looped/cyclic peptides of protein X2 of SARS-CoV Urbani [1]

CLCKHKKVSTNLCTH
0.5: Binding of serum 62 to looped/cyclic peptides of protein X2 of SARS-CoV Urbani [1]
0.4: Binding of serum 37 to looped/cyclic peptides of protein X2 of SARS-CoV Urbani [1] | Binding of serum SARS-yellow to looped/cyclic peptides of protein X2 of SARS-CoV Urbani [1] | Binding of Control Serum Blood-Bank to Looped peptides [2] | Binding of a rabbit serum to linear peptides [3] | Binding of a rabbit serum to looped peptides [3]
0.9: Binding of Control serum LUMC to linear peptides [2]
1.0: Binding of Control serum Blood-bank to linear peptides [2]
recognized in linear form: Recognition of the peptide by sera of SARS-CoV infected individuals, and form (linear, looped/cyclic) in which it is recognized [1]
0.2: Binding of serum London to looped/cyclic peptides of protein X2 of SARS-CoV Urbani [1]
0.3: Binding of serum 1a to looped/cyclic peptides of protein X2 of SARS-CoV Urbani [1] | Binding of serum 1b to looped/cyclic peptides of protein X2 of SARS-CoV Urbani [1] | Binding of serum 2 to looped/cyclic peptides of protein X2 of SARS-CoV Urbani [1] | Binding of serum 6 to looped/cyclic peptides of protein X2 of SARS-CoV Urbani [1] | Binding of serum SARS-green to looped/cyclic peptides of protein X2 of SARS-CoV Urbani [1] | Binding of Control serum LUMC to looped peptides [2]
